system: IL-17A-induced G-CSF production in human normal keratinocyte (NHK); experiment: NHK Assay: IL-17A-induced G-CSF production in human normal keratinocyte; format: cell-based; conditions: Homo sapiens, Keratinocyte, 24 h, IL-17A 5 ng/mL, simple average if tested more than once
Description: IL-17A acts directly on keratinocytes through binding to dimeric receptor IL-17RA/RC and drives the production of a number of inflammatory mediators known to be elevated in psoriasis lesional tissue. IL-17A small molecule inhibitors that block the IL-17A to interact with IL-17R would inhibit the IL-17A signaling in its targeted cells such as keratinocytes. The compound functional activity is evaluated for its impact on IL-17A-induced G-CSF production in human normal keratinocyte (NHK).
Adult normal human keratinocytes are cultured in keratinocyte growth medium (Lonza) in a flask till reaching ˜90% confluence, then cells are transferred to a 384-well plate at density of 3000-4000 cell/well. Recombinant human IL-17A (Gibco PHC9174) is pre-incubated with titrated compound or DMSO for 1 h at rt then added to the cell culture plate. The final concentration of IL-17A is 5 ng/mL and DMSO is 0.2%, in the culture containing 5% FBS. Cells are cultured/treated for 24 h at 37° C. Supernatants are collected and G-CSF production is measured through HTRF technology using Human G-CSF Kit (CisBio). G-CSF concentration was extrapolated from the standard curve and IC50 is determined using GraphPad Prism. Cell viability is also evaluated using CellTiter-Glo kit (Promega) and effect of compound on cell viability is compared to DMSO control.

Question: `CO[C@@H](CC(F)(F)F)[C@H](NC(=O)c1nonc1C1CC1)c1nc2cc(CN3C[C@@H](C(F)(F)F)NC3=O)ccc2[nH]1` (relative stereo) [Example 46, 4-Cyclopropyl-N-((1R*,2S*)-4,4,4-trifluoro-2-methoxy-1-(5-(((S)-2-oxo-4-(trifluoromethyl)imidazolidin-1-yl)methyl)-1H-benzo[d]imidazol-2-yl)butyl)-1,2,5-oxadiazole-3-carboxamide] was tested. Which IC50 did it give?
Answer: < 0.05 µM

Question: Which IC50 does the source give for `CO[C@H](CC(F)(F)F)[C@H](NC(=O)c1nonc1C)c1nc2cc(CN3C[C@@H](C(F)(F)F)NC3=O)ccc2[nH]1` (relative stereo) [Example 90, 4-Methyl-N-((1R*,2R*)-4,4,4-trifluoro-2-methoxy-1-(5-(((S)-2-oxo-4-(trifluoromethyl)imidazolidin-1-yl)methyl)-1H-benzo[d]imidazol-2-yl)butyl)-1,2,5-oxadiazole-3-carboxamide] here?
Answer: > 0.1 µM

Question: With `CO[C@@H](CC(F)(F)F)[C@H](NC(=O)c1nonc1C)c1nc2cc(CN3C[C@@H](C(F)(F)F)NC3=O)ccc2[nH]1` (relative stereo) [Example 91, 4-Methyl-N-((1R*,2S*)-4,4,4-trifluoro-2-methoxy-1-(5-(((S)-2-oxo-4-(trifluoromethyl)imidazolidin-1-yl)methyl)-1H-benzo[d]imidazol-2-yl)butyl)-1,2,5-oxadiazole-3-carboxamide] as the compound, how does the IC50 read?
Answer: < 0.05 µM

Question: For `CO[C@H](CC(F)(F)F)[C@@H](NC(=O)c1nonc1C1CC1)c1nc2cc(CN3C[C@@H](C(F)(F)F)NC3=O)ccc2[nH]1` (single isomer, unassigned) [Example 45, 4-Cyclopropyl-N-((1S*,2R*)-4,4,4-trifluoro-2-methoxy--(5-(((S)-2-oxo-4-(trifluoromethyl)imidazolidin-1-yl)methyl)-1H-benzo[d]imidazol-2-yl)butyl)-1,2,5-oxadiazole-3-carboxamide], which IC50 is on record?
Answer: 0.05 to 0.1 µM

Question: For `COCC(c1ccc2[nH]c([C@H](COC(C)(C)C(F)(F)F)NC(=O)c3nonc3C)nc2c1)N1C[C@@](C)(C(F)(F)F)NC1=O` (single isomer, unassigned) [Example 63, N—((R)-1-(5-((R*)-2-Methoxy-1-((S)-4-methyl-2-oxo-4-(trifluoromethyl)imidazolidin-1-yl)ethyl)-1H-benzo[d]imidazol-2-yl)-2-((1,1,1-trifluoro-2-methylpropan-2-yl)oxy)ethyl)-4-methyl-1,2,5-oxadiazole-3-carboxamide], which IC50 is on record?
Answer: < 0.05 µM

Question: `Cc1nonc1C(=O)N[C@@H](COC(C)(C)C(F)(F)F)c1nc2cc([C@@H](C3CC3)N3CC(CC(F)(F)F)NC3=O)ccc2[nH]1` (single isomer, unassigned) [Example 88, N—((R)-1-(5-((R)-Cyclopropyl((R*)-2-oxo-4-(2,2,2-trifluoroethyl)imidazolidin-1-yl)methyl)-1H-benzo[d]imidazol-2-yl)-2-((1,1,1-trifluoro-2-methylpropan-2-yl)oxy)ethyl)-4-methyl-1,2,5-oxadiazole-3-carboxamide] was tested. Which IC50 did it give?
Answer: < 0.05 µM

Question: How did the IC50 turn out when `COC[C@H](c1ccc2[nH]c([C@@H](NC(=O)c3nonc3C3CC3)[C@@H](C)OC3CC3)nc2c1)N1C[C@@H](C(F)(F)F)NC1=O` [Example 42, N-((1R,2R)-2-Cyclopropoxy-1-(5-((S)-2-methoxy-1-((S)-2-oxo-4-(trifluoromethyl)imidazolidin-1-yl)ethyl)-1H-benzo[d]imidazol-2-yl)propyl)-4-cyclopropyl-1,2,5-oxadiazole-3-carboxamide] was run?
Answer: < 0.05 µM

Question: How did the IC50 turn out when `COC[C@H](c1ccc2[nH]c([C@@H](NC(=O)c3nonc3C3CC3)[C@@H](C)OC3CC3)nc2c1)N1CC(F)(F)CNC1=O` [Example 43, N-((1R,2R)-2-Cyclopropoxy-1-(5-((S)-1-(5,5-difluoro-2-oxotetrahydropyrimidin-1(2H)-yl)-2-methoxyethyl)-1H-benzo[d]imidazol-2-yl)propyl)-4-cyclopropyl-1,2,5-oxadiazole-3-carboxamide] was run?
Answer: < 0.05 µM

Question: Which IC50 does the source give for `COC[C@H](c1ccc2[nH]c([C@@H](NC(=O)c3nonc3C)[C@@H](C)OC3CC3)nc2c1)N1CC(F)(F)CNC1=O` [Example 65, N-((1R,2R)-2-Cyclopropoxy-1-(5-((S)-1-(5,5-difluoro-2-oxotetrahydropyrimidin-1(2H)-yl)-2-methoxyethyl)-1H-benzo[d]imidazol-2-yl)propyl)-4-methyl-1,2,5-oxadiazole-3-carboxamide] here?
Answer: < 0.05 µM

Question: `Cc1nonc1C(=O)N[C@H](c1nc2cc([C@@H](COC3CC3)N3CC(F)(F)CNC3=O)ccc2[nH]1)[C@@H](C)O[C@@H](C)C(F)(F)F` [Example 66, N-((1R,2R)-1-(5-((S)-2-Cyclopropoxy-1-(5,5-difluoro-2-oxotetrahydropyrimidin-1(2H)-yl)ethyl)-1H-benzo[d]imidazol-2-yl)-2-(((S)-1,1,1-trifluoropropan-2-yl)oxy)propyl)-4-methyl-1,2,5-oxadiazole-3-carboxamide] was tested. Which IC50 did it give?
Answer: < 0.05 µM

Question: How did the IC50 turn out when `C[C@H](O[C@H](C)[C@H](NC(=O)c1nonc1C1CC1)c1nc2cc([C@@H](COC3CC3)N3CC(F)(F)CNC3=O)ccc2[nH]1)C(F)(F)F` [Example 67, N-((1R,2R)-1-(5-((S)-2-Cyclopropoxy-1-(5,5-difluoro-2-oxotetrahydropyrimidin-1(2H)-yl)ethyl)-1H-benzo[d]imidazol-2-yl)-2-(((S)-1,1,1-trifluoropropan-2-yl)oxy)propyl)-4-cyclopropyl-1,2,5-oxadiazole-3-carboxamide] was run?
Answer: < 0.05 µM

Question: Which IC50 does the source give for `C[C@H](O[C@H](C)[C@H](NC(=O)c1nonc1C1CC1)c1nc2cc([C@@H](COC3CC3)N3C[C@@H](C(F)(F)F)NC3=O)ccc2[nH]1)C(F)(F)F` [Example 68, N-((1R,2R)-1-(5-((S)-2-Cyclopropoxy-1-((S)-2-oxo-4-(trifluoromethyl)imidazolidin-1-yl)ethyl)-1H-benzo[d]imidazol-2-yl)-2-(((S)-1,1,1-trifluoropropan-2-yl)oxy)propyl)-4-cyclopropyl-1,2,5-oxadiazole-3-carboxamide] here?
Answer: < 0.05 µM

Question: How did the IC50 turn out when `[2H]C1([2H])N([C@@H](c2ccc3nc([C@H](COC(C)(C)C(F)(F)F)NC(=O)c4nonc4C4CC4)[nH]c3c2)C2CC2)C(=O)NCC1(F)F` [Example 76, 4-Cyclopropyl-N—((R)-1-(5-((R)-cyclopropyl(5,5-difluoro-2-oxotetrahydropyrimidin-1(2H)-yl-6,6-d2)methyl)-1H-benzo[d]imidazol-2-yl)-2-((1,1,1-trifluoro-2-methylpropan-2-yl)oxy)ethyl)-1,2,5-oxadiazole-3-carboxamide] was run?
Answer: < 0.05 µM

same assay, conditions: IL-17A 5 ng/mL, 24 h, simple average if tested more than once

Question: Which IC50 does the source give for `COCC(c1ccc2[nH]c([C@H](COC(C)(C)C(F)(F)F)NC(=O)c3nonc3C)nc2c1)N1C[C@@](C)(C(F)(F)F)NC1=O` (single isomer, unassigned) [Example 64, N—((R)-1-(5-((S*)-2-Methoxy-1-((S)-4-methyl-2-oxo-4-(trifluoromethyl)imidazolidin-1-yl)ethyl)-1H-benzo[d]imidazol-2-yl)-2-((1,1,1-trifluoro-2-methylpropan-2-yl)oxy)ethyl)-4-methyl-1,2,5-oxadiazole-3-carboxamide] here?
Answer: > 0.1 µM

Question: Which IC50 does the source give for `Cc1nonc1C(=O)N[C@@H](COC(C)(C)C(F)(F)F)c1nc2cc([C@@H](C3CC3)N3CC(CC(F)(F)F)NC3=O)ccc2[nH]1` (single isomer, unassigned) [Example 89, N—((R)-1-(5-((R)-Cyclopropyl((S*)-2-oxo-4-(2,2,2-trifluoroethyl)imidazolidin-1-yl)methyl)-1H-benzo[d]imidazol-2-yl)-2-((1,1,1-trifluoro-2-methylpropan-2-yl)oxy)ethyl)-4-methyl-1,2,5-oxadiazole-3-carboxamide] here?
Answer: > 0.1 µM

Reference: patent publication US20250122181A1, “BENZIMIDAZOLES AS MODULATORS OF IL-17” (Janssen Pharmaceutica NV, priority 2021, published 2025)
